Source: patent US20130040882A1, “USE OF FIBROBLAST GROWTH FACTOR FRAGMENTS” (NOVARTIS AG, priority 2003, published 2013)

System: uterine gene expression
Experiment: Gene expression profiling (HGU133A) in the uterus of ovariectomized monkeys treated with estradiol, tamoxifen or raloxifene
Format: in vivo, cynomolgus monkeys (Macaca fascicularis)
Details: uterus, OVX monkeys

O=C(c1ccc(OCCN2CCCCC2)cc1)c1c(-c2ccc(O)cc2)sc2cc(O)ccc12 [raloxifene]
0.9 fold: Fold change relative to OVX: Insulin receptor (Table 46) | Fold change relative to OVX: Insulin receptor (Table 51) | Fold change relative to OVX: Cyclin-dependent kinase inhibitor 1C (p57, Kip2) (entry with OVX average 224) | Fold change relative to OVX: H3 histone, family 3A (entry with OVX average 9495) | Fold change relative to SHAM control: Fibronectin 1 (entry with SHAM average 100) | Fold change relative to SHAM control: ATP synthase, H+ transporting, mitochondrial F0 complex, subunit c (subunit 9) isoform 3 (entry with SHAM average 1045) | Fold change relative to SHAM control: Fibronectin 1 (entry with SHAM average 1288) | Fold change relative to SHAM control: ATP synthase, H+ transporting, mitochondrial F0 complex, subunit c (subunit 9) isoform 3 (entry with SHAM average 1355) | Fold change relative to SHAM control: H3 histone, family 3A (entry with SHAM average 9408)
0.6 fold: Fold change relative to SHAM control: Heparan sulfate proteoglycan 2 (perlecan) | Fold change relative to SHAM control: Bone morphogenetic protein 1 (entry with SHAM average 205) | Fold change relative to SHAM control: Solute carrier family 2 (facilitated glucose/fructose transporter), member 5 (entry with SHAM average 291)
2.1 fold: Fold change relative to OVX: Fibrillin 1 (Marfan syndrome) (entry with OVX average 124)
1.8 fold: Fold change relative to OVX: Collagen, type IV, alpha 1 (entry with OVX average 182)
2.0 fold: Fold change relative to OVX: Collagen, type III, alpha 1 (Ehlers-Danlos syndrome type IV, autosomal dominant) (entry with OVX average 3445)
1.3 fold: Fold change relative to SHAM control: Cyclin-dependent kinase inhibitor 1C (p57, Kip2) (entry with SHAM average 660)
1.2 fold: Fold change relative to OVX: Bone morphogenetic protein 1 (entry with OVX average 79) | Fold change relative to OVX: Solute carrier family 2 (facilitated glucose/fructose transporter), member 5 (entry with OVX average 171) | Fold change relative to OVX: Cyclin-dependent kinase inhibitor 1C (p57, Kip2) (entry with OVX average 527) | Fold change relative to OVX: Collagen, type IV, alpha 1 (entry with OVX average 690) | Fold change relative to OVX: ATP synthase, H+ transporting, mitochondrial F0 complex, subunit c (subunit 9) isoform 3 (entry with OVX average 811) | Fold change relative to OVX: ATP synthase, H+ transporting, mitochondrial F0 complex, subunit c (subunit 9) isoform 3 (entry with OVX average 1007) | Fold change relative to SHAM control: Insulin-like growth factor 1 (somatomedin C) (entry with SHAM average 581) | Fold change relative to SHAM control: Fibronectin 1 (entry with SHAM average 1089)
1.7 fold: Fold change relative to SHAM control: Nidogen (enactin) | Fold change relative to SHAM control: Thioredoxin interacting protein | Fold change relative to OVX: Fibronectin 1 (entry with OVX average 648)
2.3 fold: Fold change relative to OVX: Fibronectin 1 (entry with OVX average 39) | Fold change relative to OVX: Insulin-like growth factor 1 (somatomedin C) (entry with OVX average 310)
1.5 fold: Fold change relative to OVX: Insulin-like growth factor 1 (somatomedin C) (entry with OVX average 102) | Fold change relative to OVX: Fibrillin 1 (Marfan syndrome) (entry with OVX average 874)
1.0 fold: Fold change relative to SHAM control: Histone H2A.F/Z variant | Fold change relative to OVX: Solute carrier family 2 (facilitated glucose/fructose transporter), member 5 (entry with OVX average 176) | Fold change relative to OVX: H3 histone, family 3A (entry with OVX average 9692) | Fold change relative to SHAM control: Cyclin-dependent kinase inhibitor 1C (p57, Kip2) (entry with SHAM average 201) | Fold change relative to SHAM control: Collagen, type I, alpha 2 (entry with SHAM average 493) | Fold change relative to SHAM control: Fibronectin 1 (entry with SHAM average 920) | Fold change relative to SHAM control: Fibrillin 1 (Marfan syndrome) (entry with SHAM average 1388) | Fold change relative to SHAM control: Collagen, type III, alpha 1 (Ehlers-Danlos syndrome type IV, autosomal dominant) (entry with SHAM average 7354) | Fold change relative to SHAM control: H3 histone, family 3A (entry with SHAM average 10239)
0.8 fold: Fold change relative to SHAM control: Fibulin 1 | Fold change relative to SHAM control: H2A histone family, member Y | Fold change relative to SHAM control: Intercrine-alpha, mrna sequence | Fold change relative to SHAM control: Laminin, beta 1 | Fold change relative to SHAM control: Latent transforming growth factor beta binding protein 1 | Fold change relative to SHAM control: Peroxiredoxin 1 | Fold change relative to SHAM control: Procollagen C-endopeptidase enhancer | Fold change relative to SHAM control: Procollagen-proline, 2-oxoglutarate 4-dioxygenase (proline 4-hydroxylase), alpha polypeptide II | Fold change relative to SHAM control: SET domain, bifurcated 1 | Fold change relative to SHAM control: Secreted protein, acidic, cysteine-rich (osteonectin) | Fold change relative to SHAM control: Solute carrier family 22 (organic cation transporter), member 1-like | Fold change relative to SHAM control: Solute carrier family 25 (mitochondrial carrier; adenine nucleotide translocator), member 5 | Fold change relative to SHAM control: Tenascin C (hexabrachion) | Fold change relative to SHAM control: Transforming growth factor, beta-induced, 68 kda | Fold change relative to SHAM control: Ubiquinol-cytochrome c reductase, Rieske iron-sulfur polypeptide 1 | Fold change relative to SHAM control: Insulin-like growth factor 1 (somatomedin C) (entry with SHAM average 417) | Fold change relative to SHAM control: Collagen, type I, alpha 2 (entry with SHAM average 7758)
1.9 fold: Fold change relative to OVX: Fibronectin 1 (entry with OVX average 757) | Fold change relative to OVX: Collagen, type III, alpha 1 (Ehlers-Danlos syndrome type IV, autosomal dominant) (entry with OVX average 1084)
3.2 fold: Fold change relative to OVX: Collagen, type I, alpha 2 (entry with OVX average 154)
0.7 fold: Fold change relative to SHAM control: G1 to S phase transition 1 | Fold change relative to SHAM control: Growth associated protein 43 | Fold change relative to SHAM control: Insulin-like growth factor binding protein 2, 36 kda | Fold change relative to SHAM control: Osteoglycin (osteoinductive factor, mimecan) | Fold change relative to SHAM control: Pituitary tumour-transforming 1 interacting protein | Fold change relative to SHAM control: Serine (or cysteine) proteinase inhibitor, clade H (heat shock protein 47), member 1, (collagen binding protein 1) | Fold change relative to SHAM control: Stem cell growth factor; lymphocyte secreted C-type lectin | Fold change relative to SHAM control: Bone morphogenetic protein 1 (entry with SHAM average 143) | Fold change relative to SHAM control: Insulin-like growth factor 1 (somatomedin C) (entry with SHAM average 226) | Fold change relative to SHAM control: Solute carrier family 2 (facilitated glucose/fructose transporter), member 5 (entry with SHAM average 317) | Fold change relative to SHAM control: Collagen, type IV, alpha 1 (entry with SHAM average 436) | Fold change relative to SHAM control: Collagen, type IV, alpha 1 (entry with SHAM average 1143) | Fold change relative to SHAM control: Collagen, type III, alpha 1 (Ehlers-Danlos syndrome type IV, autosomal dominant) (entry with SHAM average 2992)
1.1 fold: Fold change relative to SHAM control: Insulin-like growth factor binding protein 5 | Fold change relative to SHAM control: SPARC-like 1 (mast9, hevin) | Fold change relative to SHAM control: Testis Enhanced Gene Transcript (Bax Inhibitor 1) | Fold change relative to OVX: Cyclin-dependent kinase inhibitor 1C (p57, Kip2) (entry with OVX average 762) | Fold change relative to SHAM control: Fibrillin 1 (Marfan syndrome) (entry with SHAM average 236) | Fold change relative to SHAM control: Fibronectin 1 (entry with SHAM average 1301)
0.2 fold: Fold change relative to SHAM control: Matrix metalloproteinase 19
1.4 fold: Fold change relative to SHAM control: Insulin receptor (Table 51) | Fold change relative to OVX: Bone morphogenetic protein 1 (entry with OVX average 93) | Fold change relative to SHAM control: Cyclin-dependent kinase inhibitor 1C (p57, Kip2) (entry with SHAM average 459)
2.2 fold: Fold change relative to OVX: Insulin-like growth factor 1 (somatomedin C) (entry with OVX average 156) | Fold change relative to OVX: Fibronectin 1 (entry with OVX average 419) | Fold change relative to OVX: Fibronectin 1 (entry with OVX average 586) | Fold change relative to OVX: Collagen, type I, alpha 2 (entry with OVX average 2757)
